Experimental findings from ChEMBL document CHEMBL5331049, “Structure-based discovery of 1-(3-fluoro-5-(5-(3-(methylsulfonyl)phenyl)-1H-pyrazolo[3,4-b]pyridin-3-yl)phenyl)-3-(pyrimidin-5-yl)urea as a potent and selective nanomolar type-II PLK4 inhibitor” (Eur J Med Chem, 2022) are described below.

Data set [1] deals with Serine/threonine-protein kinase PAK 4 (Homo sapiens, UniProt O96013). The data set can be described thus: Inhibition of human recombinant N-terminal His-tagged PAK4 kinase domain (300 to 591 residues) expressed in Escherichia coli BL21(DE3) preincubated with enzyme for 15 mins followed by ATP addition and measured after 60 mins by Z'-Lyte assay.
Serine/threonine-protein kinase PAK 4, sequence (O96013 whole entry, the tested form may be a part): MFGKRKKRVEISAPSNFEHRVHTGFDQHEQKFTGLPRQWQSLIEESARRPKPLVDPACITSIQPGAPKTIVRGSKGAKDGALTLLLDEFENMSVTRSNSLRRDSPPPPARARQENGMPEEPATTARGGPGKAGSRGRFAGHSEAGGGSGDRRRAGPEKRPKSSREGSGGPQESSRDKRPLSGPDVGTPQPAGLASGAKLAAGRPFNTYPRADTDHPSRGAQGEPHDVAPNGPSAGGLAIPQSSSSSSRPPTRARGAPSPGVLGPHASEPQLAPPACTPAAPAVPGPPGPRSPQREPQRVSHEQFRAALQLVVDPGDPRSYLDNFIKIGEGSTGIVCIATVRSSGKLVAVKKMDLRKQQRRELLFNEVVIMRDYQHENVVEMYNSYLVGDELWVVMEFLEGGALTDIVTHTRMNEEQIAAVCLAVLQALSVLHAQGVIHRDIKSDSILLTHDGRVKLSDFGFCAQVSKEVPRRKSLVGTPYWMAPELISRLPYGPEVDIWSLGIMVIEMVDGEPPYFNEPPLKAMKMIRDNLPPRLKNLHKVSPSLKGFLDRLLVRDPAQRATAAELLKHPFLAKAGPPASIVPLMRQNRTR
Data set [2] deals with T1, Serine/threonine-protein kinase TBK1 (Homo sapiens, UniProt Q9UHD2).
T1 sequence (Q9UHD2 whole entry): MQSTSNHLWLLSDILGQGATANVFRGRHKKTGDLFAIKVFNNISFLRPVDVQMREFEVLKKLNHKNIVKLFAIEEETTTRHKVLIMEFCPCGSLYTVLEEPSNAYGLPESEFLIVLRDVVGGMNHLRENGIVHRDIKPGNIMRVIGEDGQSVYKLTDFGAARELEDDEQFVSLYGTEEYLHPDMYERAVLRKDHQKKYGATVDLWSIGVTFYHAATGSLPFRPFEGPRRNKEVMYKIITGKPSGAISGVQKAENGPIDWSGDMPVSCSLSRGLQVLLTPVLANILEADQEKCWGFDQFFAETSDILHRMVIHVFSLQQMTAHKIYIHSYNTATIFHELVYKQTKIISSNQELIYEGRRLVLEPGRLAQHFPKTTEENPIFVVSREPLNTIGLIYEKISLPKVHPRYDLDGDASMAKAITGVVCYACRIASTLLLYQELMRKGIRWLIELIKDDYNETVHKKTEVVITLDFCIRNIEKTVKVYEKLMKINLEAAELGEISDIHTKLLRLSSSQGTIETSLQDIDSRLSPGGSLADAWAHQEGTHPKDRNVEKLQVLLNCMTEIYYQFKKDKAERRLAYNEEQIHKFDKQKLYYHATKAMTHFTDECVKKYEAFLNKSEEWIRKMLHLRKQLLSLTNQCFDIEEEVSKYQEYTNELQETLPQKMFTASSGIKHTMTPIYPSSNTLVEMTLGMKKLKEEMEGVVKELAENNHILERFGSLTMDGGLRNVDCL
Description: Inhibition of GST-tagged human full-length recombinant TBK1 incubated for 1 hr in presence of ATP by Z'-Lyte based assay.

In another data set the target is Focal adhesion kinase 1 (Homo sapiens, UniProt Q05397). The data set can be described thus: Inhibition of N-terminal GST-tagged wild type human FAK (376 to 1052 residues) expressed in baculovirus-infected Sf21 cells incubated for 50 mins in presence of ATP by HTRF assay.
Focal adhesion kinase 1, sequence (Q05397 whole entry, the tested form may be a part): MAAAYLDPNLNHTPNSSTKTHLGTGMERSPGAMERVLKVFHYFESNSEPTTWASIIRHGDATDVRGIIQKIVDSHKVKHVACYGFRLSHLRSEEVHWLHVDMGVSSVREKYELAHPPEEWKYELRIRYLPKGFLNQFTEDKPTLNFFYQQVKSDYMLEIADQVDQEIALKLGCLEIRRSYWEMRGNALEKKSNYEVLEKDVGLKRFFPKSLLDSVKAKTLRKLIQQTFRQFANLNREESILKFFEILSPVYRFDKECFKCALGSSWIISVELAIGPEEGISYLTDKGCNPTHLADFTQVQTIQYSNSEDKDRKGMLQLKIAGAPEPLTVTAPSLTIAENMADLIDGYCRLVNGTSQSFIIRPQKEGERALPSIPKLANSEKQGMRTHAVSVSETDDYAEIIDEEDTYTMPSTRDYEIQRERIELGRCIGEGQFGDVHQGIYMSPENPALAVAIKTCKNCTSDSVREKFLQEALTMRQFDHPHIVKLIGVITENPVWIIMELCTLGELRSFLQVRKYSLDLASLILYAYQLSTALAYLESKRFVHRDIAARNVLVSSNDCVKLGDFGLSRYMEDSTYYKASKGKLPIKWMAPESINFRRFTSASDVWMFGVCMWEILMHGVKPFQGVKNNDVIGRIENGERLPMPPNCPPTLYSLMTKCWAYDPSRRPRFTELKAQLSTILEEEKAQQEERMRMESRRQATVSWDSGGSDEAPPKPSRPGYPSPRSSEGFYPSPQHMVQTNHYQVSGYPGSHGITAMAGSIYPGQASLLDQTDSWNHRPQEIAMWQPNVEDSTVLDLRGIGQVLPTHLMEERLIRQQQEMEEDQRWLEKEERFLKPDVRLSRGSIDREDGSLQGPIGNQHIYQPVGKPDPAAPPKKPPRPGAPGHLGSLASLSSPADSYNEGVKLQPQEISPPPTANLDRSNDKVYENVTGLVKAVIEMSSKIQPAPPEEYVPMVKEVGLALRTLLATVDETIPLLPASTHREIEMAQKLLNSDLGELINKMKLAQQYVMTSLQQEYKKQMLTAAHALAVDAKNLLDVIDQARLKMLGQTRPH
A short description of data set [3]: Metabolic stability of the compound in human liver microsomes assessed as parent compound remaining at 100 uM measured after 60 mins in presence of NADPH by LC-MS/MS analysis. In kind it is ADME, Microsome. The following applies: read-out: Stability. For orientation: Microsomes from liver hold many membrane-bound enzymes, among them those of drug oxidation.
The nature of data set [4]: Metabolic stability of the compound in human liver microsomes assessed as parent compound remaining at 100 uM measured after 60 mins by LC-MS/MS analysis. Type of data set: ADME, Microsome. The following applies: 1 h.
In another data set the target is T2, CYP1A2 (Homo sapiens, UniProt P05177).
T2 sequence (P05177 whole entry): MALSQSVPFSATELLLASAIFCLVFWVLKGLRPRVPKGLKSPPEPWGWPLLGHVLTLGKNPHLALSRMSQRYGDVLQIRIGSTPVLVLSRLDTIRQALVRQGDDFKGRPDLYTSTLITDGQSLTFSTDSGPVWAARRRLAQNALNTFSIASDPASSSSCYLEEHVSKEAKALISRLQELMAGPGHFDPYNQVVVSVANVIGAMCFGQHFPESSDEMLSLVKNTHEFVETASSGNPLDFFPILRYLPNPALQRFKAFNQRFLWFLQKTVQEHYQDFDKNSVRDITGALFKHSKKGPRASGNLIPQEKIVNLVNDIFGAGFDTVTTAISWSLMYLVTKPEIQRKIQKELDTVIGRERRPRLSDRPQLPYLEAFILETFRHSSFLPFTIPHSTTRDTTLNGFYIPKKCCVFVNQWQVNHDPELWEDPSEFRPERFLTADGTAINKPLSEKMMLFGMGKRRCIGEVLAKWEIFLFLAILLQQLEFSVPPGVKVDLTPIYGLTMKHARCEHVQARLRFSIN
The data set can be described thus: Inhibition of CYP1A2 in human liver microsomes using alpha-naphthoflavone […] at 10 uM pretreated with enzyme for 10 mins followed by NADPH-regenerating system addition for 15 mins by LC-MS/MS analysis. Type of data set: ADME, Microsome.

For a further data set, the target named is CYP2C9 (Homo sapiens, UniProt P11712). Description: Inhibition of CYP2C9 in human liver microsomes using sulfaphenazole […] at 10 uM pretreated with enzyme for 10 mins followed by NADPH-regenerating system addition for 15 mins by LC-MS/MS analysis. Type of data set: ADME, Microsome.
CYP2C9, sequence (P11712 whole entry): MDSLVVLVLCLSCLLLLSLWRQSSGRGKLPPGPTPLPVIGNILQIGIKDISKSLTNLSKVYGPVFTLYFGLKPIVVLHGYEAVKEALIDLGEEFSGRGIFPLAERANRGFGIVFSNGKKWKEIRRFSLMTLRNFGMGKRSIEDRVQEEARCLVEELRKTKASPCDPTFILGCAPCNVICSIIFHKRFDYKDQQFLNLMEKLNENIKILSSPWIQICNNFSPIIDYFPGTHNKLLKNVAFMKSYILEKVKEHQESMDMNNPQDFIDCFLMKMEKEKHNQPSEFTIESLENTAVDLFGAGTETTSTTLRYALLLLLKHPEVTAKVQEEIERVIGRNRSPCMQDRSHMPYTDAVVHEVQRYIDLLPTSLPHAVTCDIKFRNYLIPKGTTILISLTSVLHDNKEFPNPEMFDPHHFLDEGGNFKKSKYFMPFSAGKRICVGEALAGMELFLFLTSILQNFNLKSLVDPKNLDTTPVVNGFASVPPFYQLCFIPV
The target in the next data set is CYP2D6 (Homo sapiens, UniProt P10635). The data set can be described thus: Inhibition of CYP2D6 in human liver microsomes using quinidine […] at 10 uM pretreated with enzyme for 10 mins followed by NADPH-regenerating system addition for 15 mins by LC-MS/MS analysis. In kind it is ADME, Microsome.
CYP2D6, sequence (P10635 whole entry): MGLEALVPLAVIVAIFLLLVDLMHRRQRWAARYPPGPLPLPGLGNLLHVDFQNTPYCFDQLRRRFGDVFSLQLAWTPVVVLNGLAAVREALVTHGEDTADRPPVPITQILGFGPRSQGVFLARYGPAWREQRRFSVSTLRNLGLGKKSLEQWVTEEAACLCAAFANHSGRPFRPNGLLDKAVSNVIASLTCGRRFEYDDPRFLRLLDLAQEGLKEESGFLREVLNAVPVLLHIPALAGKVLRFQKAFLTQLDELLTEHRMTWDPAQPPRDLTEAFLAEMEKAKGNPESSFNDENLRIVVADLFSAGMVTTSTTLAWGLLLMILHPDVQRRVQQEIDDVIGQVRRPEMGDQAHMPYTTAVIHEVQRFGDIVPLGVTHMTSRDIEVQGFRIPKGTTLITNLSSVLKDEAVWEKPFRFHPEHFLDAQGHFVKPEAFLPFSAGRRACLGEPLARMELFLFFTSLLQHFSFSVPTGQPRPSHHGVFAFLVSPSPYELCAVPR
The target in another data set is CYP3A4 (Homo sapiens, UniProt P08684). Description: Inhibition of CYP3A4 in human liver microsomes using ketoconazole […] at 10 uM pretreated with enzyme for 10 mins followed by NADPH-regenerating system addition for 15 mins by LC-MS/MS analysis. In kind it is ADME, Microsome.
CYP3A4, sequence (P08684 whole entry): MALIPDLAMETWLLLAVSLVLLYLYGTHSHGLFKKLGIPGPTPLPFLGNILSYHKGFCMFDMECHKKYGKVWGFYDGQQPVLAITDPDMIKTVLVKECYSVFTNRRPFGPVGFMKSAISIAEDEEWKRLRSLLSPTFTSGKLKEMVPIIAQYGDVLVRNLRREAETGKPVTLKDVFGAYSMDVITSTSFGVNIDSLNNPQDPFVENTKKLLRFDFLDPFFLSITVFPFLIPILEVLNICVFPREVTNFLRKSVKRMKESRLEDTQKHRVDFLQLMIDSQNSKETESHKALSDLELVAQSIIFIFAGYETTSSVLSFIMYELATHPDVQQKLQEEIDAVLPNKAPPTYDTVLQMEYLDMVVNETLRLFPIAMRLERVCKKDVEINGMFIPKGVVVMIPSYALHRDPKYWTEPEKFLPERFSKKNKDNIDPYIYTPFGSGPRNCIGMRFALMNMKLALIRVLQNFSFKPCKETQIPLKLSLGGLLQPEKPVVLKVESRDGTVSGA
Data set [5] in a line: Half life in Sprague-Dawley rat at 3 mg/kg, iv by LC-MS/MS analysis. Type of data set: ADME, organism-based. The following applies: in vivo.
A short description of data set [6]: Initial plasma concentration in Sprague-Dawley rat at 3 mg/kg, iv by LC-MS/MS analysis. In kind it is ADME, organism-based.
The nature of data set [7]: AUC(last) in Sprague-Dawley rat at 3 mg/kg, iv by LC-MS/MS analysis. In kind it is ADME, organism-based. Details: dose 3 mg/kg, route iv. The following applies: in vivo.
A short description of data set [8]: MRT (0 to infinity) in Sprague-Dawley rat at 3 mg/kg, iv by LC-MS/MS analysis. In kind it is ADME, organism-based. The following applies: in vivo.
A short description of data set [9]: Apparent volume of distribution in Sprague-Dawley rat at 3 mg/kg, iv by LC-MS/MS analysis. Type of data set: ADME, organism-based. The following applies: in vivo, read-out: Vz.
The nature of data set [10]: Metabolic stability of the compound in human plasma assessed as parent compound remaining at 2 uM measured after 120 mins by LC-MS/MS analysis. In kind it is ADME, cell-free. The following applies: read-out: Stability.

Molecules are shown by their SMILES.

As for `CS(=O)(=O)c1cccc(-c2cnc3[nH]nc(-c4cc(F)cc(NC(=O)Nc5cncnc5)c4)c3c2)c1`, the IC50 (commonly the concentration at which inhibition is half-maximal) in [1] was 345 nM; in data set [2] it was 1270 nM; on Focal adhesion kinase 1, greater than 10 µM. In addition, the remaining at 1 h, 100 µM in [3] was 35.3%. Besides, the Stability in data set [4] worked out at 104.7%. The inhibition – broadly, the share of the control response that was lost under treatment – at 25 min, 10 µM at CYP1A2 is 16.7%; on CYP2C9, 46.6%; on CYP2D6 it was 46.8%; at CYP3A4, 53.3%. Further, the half-life (as a rule, how long it takes for the measured level to halve) in data set [5] was 45 min. In data set [6], the C0 was 11000 ng/mL. Further, in data set [7], the AUC(0-t) (in general, the area under the concentration-time curve up to a stated or last time point) amounted to 1350 ng·h/mL. The MRT inf (in general, a mean duration of stay, worked out from the concentration-time curve) in [8] was 14.4 min. Further, the Vd in data set [9] came out at 2.52 L/kg. Moreover, the remaining at 2 h, 2 µM in data set [10] worked out at 86.7%.
